Our source for the Ki, IC50 and Activity values is ChEMBL document CHEMBL1151754, “Structural and mechanistic studies of mofegiline inhibition of recombinant human monoamine oxidase B” (J Med Chem, 2008).

Structures are written as SMILES.

Data set [1] concerns the target T1, Amine oxidase [flavin-containing] A (Homo sapiens, UniProt P21397).
T1 sequence (P21397 whole entry): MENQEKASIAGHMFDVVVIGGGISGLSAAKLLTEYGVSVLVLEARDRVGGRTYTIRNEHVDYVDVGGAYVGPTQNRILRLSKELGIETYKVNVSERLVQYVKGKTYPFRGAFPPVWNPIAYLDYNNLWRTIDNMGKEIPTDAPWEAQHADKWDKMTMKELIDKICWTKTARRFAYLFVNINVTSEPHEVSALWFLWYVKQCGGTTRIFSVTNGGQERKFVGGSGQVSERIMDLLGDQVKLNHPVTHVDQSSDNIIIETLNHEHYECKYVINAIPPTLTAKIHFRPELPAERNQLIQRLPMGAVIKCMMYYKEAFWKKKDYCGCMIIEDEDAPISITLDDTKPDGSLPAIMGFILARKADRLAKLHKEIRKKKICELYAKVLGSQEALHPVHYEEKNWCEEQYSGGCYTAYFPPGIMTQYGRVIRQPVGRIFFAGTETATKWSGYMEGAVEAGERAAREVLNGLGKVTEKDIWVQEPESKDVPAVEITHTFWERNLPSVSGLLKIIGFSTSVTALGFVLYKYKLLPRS
Description: Inhibition of human MAOA.

In data set [2] the target is T2, Amine oxidase [flavin-containing] B (Rattus norvegicus, UniProt P19643).
T2 sequence (P19643 whole entry): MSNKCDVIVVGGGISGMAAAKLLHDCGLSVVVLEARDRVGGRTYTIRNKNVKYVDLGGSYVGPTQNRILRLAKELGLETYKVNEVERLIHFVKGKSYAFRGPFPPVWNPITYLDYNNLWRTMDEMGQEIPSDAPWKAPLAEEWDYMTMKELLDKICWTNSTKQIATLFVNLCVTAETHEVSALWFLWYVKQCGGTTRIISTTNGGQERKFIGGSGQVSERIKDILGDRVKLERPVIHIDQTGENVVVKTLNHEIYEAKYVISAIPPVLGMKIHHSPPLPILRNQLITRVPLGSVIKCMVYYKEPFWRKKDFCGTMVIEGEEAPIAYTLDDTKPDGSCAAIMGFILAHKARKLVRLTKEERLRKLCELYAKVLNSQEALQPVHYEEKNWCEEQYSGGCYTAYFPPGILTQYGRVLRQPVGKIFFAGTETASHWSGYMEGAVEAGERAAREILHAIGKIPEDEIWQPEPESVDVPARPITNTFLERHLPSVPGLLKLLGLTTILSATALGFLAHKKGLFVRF
As to the kind of experiment: Inhibition of rat membrane MAOB.

The target in data set [3] is T1, Amine oxidase [flavin-containing] A. Description: Inhibition of human recombinant MAOA expressed in Pichia pastoris by kinetic assay.
Data set [4] addresses T3, Amine oxidase [flavin-containing] B (Homo sapiens, UniProt P27338).
T3 sequence (P27338 whole entry): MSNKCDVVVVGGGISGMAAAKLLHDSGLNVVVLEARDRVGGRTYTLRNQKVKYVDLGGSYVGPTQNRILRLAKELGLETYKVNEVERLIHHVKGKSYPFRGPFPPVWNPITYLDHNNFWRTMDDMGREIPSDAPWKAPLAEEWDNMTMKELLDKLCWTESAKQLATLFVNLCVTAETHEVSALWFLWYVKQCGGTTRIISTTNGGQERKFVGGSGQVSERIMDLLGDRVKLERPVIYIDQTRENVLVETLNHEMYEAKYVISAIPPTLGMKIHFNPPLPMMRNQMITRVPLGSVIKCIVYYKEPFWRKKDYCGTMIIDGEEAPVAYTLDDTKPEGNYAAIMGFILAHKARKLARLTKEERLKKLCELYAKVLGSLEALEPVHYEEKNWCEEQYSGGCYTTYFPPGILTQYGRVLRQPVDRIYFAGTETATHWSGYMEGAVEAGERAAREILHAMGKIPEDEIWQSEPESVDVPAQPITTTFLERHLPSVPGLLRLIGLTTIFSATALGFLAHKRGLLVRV
Description: Inhibition of oxidized human recombinant MAOB expressed in Pichia pastoris under anaerobic assay condition.

Data set [5] deals with T3, Amine oxidase [flavin-containing] B. As to the kind of experiment: Inhibition of reduced human recombinant MAOB expressed in Pichia pastoris assessed as increase in absorbance of reduced enzyme. Set-up: scale not given: the % may be the effect or the level left.
Data set [6] shares this target. Description: Inhibition of human recombinant MAOB expressed in Pichia pastoris assessed as effect on flavin absorbance shift by spectroscopy.
In data set [7] the target is T1, Amine oxidase [flavin-containing] A. As to the kind of experiment: Inhibition of oxidized human recombinant MAOA expressed in Pichia pastoris under anaerobic assay condition.
For data set [8], the target named is T3, Amine oxidase [flavin-containing] B. Description: Inhibition of human recombinant MAOB expressed in Pichia pastoris by kinetic assay.
Data set [9] shares this target. Description: Inhibition of human recombinant MAOB expressed in Pichia pastoris assessed as fluoride ion release by ion-selective electrode experiment.
Data set [10] shares this target. As to the kind of experiment: Inhibition of human recombinant MAOB expressed in Pichia pastoris at stoichiometric level of 1 mol/mol of E-FAD.
Data set [11] shares this target. As to the kind of experiment: Inhibition of human recombinant MAOB expressed in Pichia pastoris assessed as formation of intense negative dichroic band at […] by CD spectroscopy.

In general, Ki refers to the equilibrium dissociation constant of an inhibitor or competing ligand from its target. In data set [1], `NCCCCc1ccccc1` [4-PHENYL-BUTYLAMINE] had a Ki of 31000 nM.

A word on the IC50: it is the concentration at which inhibition is half-maximal. `NC/C(=C/F)CCc1ccc(F)cc1` [MOFEGILINE] came in with a concentration for half-maximal inhibition (IC50) in data set [2] of 3.6 nM. Also, the Ki is 1100 nM in [3] and 28 nM in [8]. Besides, the Activity result in [4] is reported as “Active”; in data set [5] it was 50%; in [6] it was “Active”; in data set [7] it was “Not Active”; in data set [9] it was “Active”; in [10], “Active”. Moreover, in data set [11], the result was Active.
